According to publication PMC5439695 (PLoS ONE, 2017):
Like-named read-outs stand apart in the source and are kept apart here.

Tested on: HEK293 and HepG2 cell lines
[1] = POD potency, max over real-time cytotoxicity assays
[2] = POD potency, median over real-time cytotoxicity assays

Compound | Cyto(realtime)_max [1] | Cyto(realtime)_median [2] | Cyto(realtime)_max | Cyto(realtime)_median
CCCCCCCCCCCCn1cc[n+](C)c1.F[B-](F)(F)F | 6.57 log10(M)*-1 | 4.55 log10(M)*-1 | – | –
CCCCCCCCCCCCn1cc[n+](C)c1.O=S(=O)([O-])C(F)(F)F | 6.68 log10(M)*-1 | 4.57 log10(M)*-1 | – | –
CCCCCCCCCCCCCCCC[N+](C)(C)C.[Cl-] | 5.58 log10(M)*-1 | 4.79 log10(M)*-1 | – | –
CCCCCCCCCCCCCCCCn1cc[n+](C)c1.F[B-](F)(F)F | 6.28 log10(M)*-1 | 4.62 log10(M)*-1 | – | –
CCCCCCCCCCCCCC[n+]1ccn(C)c1.[Cl-] | 6.67 log10(M)*-1 | 4.69 log10(M)*-1 | – | –
CCCCCCCCCCCCCC[N+](C)(C)C.[Cl-] | 5.94 log10(M)*-1 | 4.88 log10(M)*-1 | – | –
CCCCCCCCCCCCCC[P+](CCCC)(CCCC)CCCC.CCCCCCCCCCCCc1ccc(S(=O)(=O)[O-])cc1 | 6.97 log10(M)*-1 | 5.03 log10(M)*-1 | – | –
CCCCCCCCCCCCCC[P+](CCCCCC)(CCCCCC)CCCCCC.N#C[N-]C#N | 5.83 log10(M)*-1 | 4.81 log10(M)*-1 | – | –
1-Ethyl-3-methylimidazolium diethylphosphate | – | – | 6.32 log10(M)*-1 | 4.65 log10(M)*-1
N=C1NC(=N)c2cc3ccccc3cc21 [1,3-Diiminobenz(f)isoindoline] | 4.75 log10(M)*-1 | 4.40 log10(M)*-1 | – | –
CCCC[n+]1ccc(C)cc1.[Cl-] [1-Butyl-4-methylpyridinium chloride] | 5.01 log10(M)*-1 | 4.39 log10(M)*-1 | – | –
CCCCCCCCCCCCn1cc[n+](C)c1.[Cl-] [1-Dodecyl-3-methylimidazolium chloride] | 7.06 log10(M)*-1 | 4.44 log10(M)*-1 | – | –
OCC(c1ccc(Cl)cc1)c1ccc(Cl)cc1 [2,2-Bis(4-chlorophenyl)ethanol] | 4.70 log10(M)*-1 | 4.57 log10(M)*-1 | – | –
CCCCC(CC)COC(=O)c1ccc(O)cc1 (stereo not shown) [2-Ethylhexylparaben] | 4.68 log10(M)*-1 | 4.25 log10(M)*-1 | – | –
